3 compounds from patent publication US11590116B2 (THERAVANCE BIOPHARMA R&D IP, LLC, priority 2019, dated 2023) can be followed below.

Assay [1] relates to TGF-β-stimulated SMAD3 phosphorylation in BEAS-2B cells. The assay can be described thus: Cellular ALK5 potency assay, inhibition of TGF-β stimulated pSMAD3 formation in BEAS-2B cells. The assay is classed as cell-based. The settings on record: Homo sapiens; inhibition of TGF-β stimulated pSMAD3 formation, BEAS-2B cells; read-out: BEAS2B pIC50 (converted). The method in brief:
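Cells seeded overnight; rinse with supplemented HBSS; compound 1 h at 37 °C; TGF-β 10 ng/mL final, 30 min; lyse; AlphaLISA acceptor and detector beads 2 h apart, read next day. Potency expressed as pIC50.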

In assay [2] the target is T1, recombinant human ALK5 (TGF-βR1) protein (Homo sapiens, UniProt P36897).
T1 construct: purchased Life Technologies PR9075A
T1 sequence (P36897 34-503): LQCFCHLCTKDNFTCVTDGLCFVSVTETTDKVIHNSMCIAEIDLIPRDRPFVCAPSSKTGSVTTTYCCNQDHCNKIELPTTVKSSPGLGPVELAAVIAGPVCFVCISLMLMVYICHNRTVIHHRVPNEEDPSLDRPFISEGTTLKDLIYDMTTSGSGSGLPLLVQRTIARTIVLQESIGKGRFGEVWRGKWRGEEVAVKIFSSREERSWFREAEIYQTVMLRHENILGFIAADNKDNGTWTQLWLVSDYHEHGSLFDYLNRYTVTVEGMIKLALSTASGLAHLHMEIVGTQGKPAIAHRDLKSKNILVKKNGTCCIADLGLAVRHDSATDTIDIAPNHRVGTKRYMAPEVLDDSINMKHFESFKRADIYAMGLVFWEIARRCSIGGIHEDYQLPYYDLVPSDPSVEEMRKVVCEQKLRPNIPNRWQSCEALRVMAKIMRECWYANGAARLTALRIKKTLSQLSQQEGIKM
The assay can be described thus: Biochemical ALK5 (TGF-βR1) assay to measure pKi (LANCE Ultra ULight kinase assay). The settings on record: apparent pKi from pIC50 by Cheng-Prusoff, read-out: ALK5 pKi (converted). The method in brief: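 Dose range 10 μM–25 pM; enzyme + compound 60 min RT; ATP added (5× stock 125 μM, 2 mM DTT); 60 min 37 °C; stop with EDTA + Eu anti-phospho-Topo IIα Thr1342 Ab; TR-FRET ex 320/340, em 665 nm. 4-param pIC50 → pKi (Cheng-Prusoff).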
(In general: Time-resolved FRET reads energy transfer from a long-lived donor to a nearby acceptor.)

Take `Cc1cccc(-c2[nH]cnc2-c2ccc3ncc(-c4ccnc(C(=O)OC5CCNCC5)c4)cc3c2)n1` [Compound 799, 4-piperidyl 4-[6-[5-(6-methyl-2-pyridyl)-1H-imidazol-4-yl]-3-quinolyl]pyridine-2-carboxylate]: in assay [1], the IC50 is 200 to 1260 nM. For the same compound, in assay [2], the Ki was 0.0398 to 0.316 nM.

As to `Cc1cccc(-c2[nH]cnc2-c2ccc3ncc(C4=CC[C@H](NC(=O)[C@@H]5CCC(=O)N5)CC4)cc3c2)n1` [Compound 764, (2S)-N-[(1R)-4-[6-[5-(6-methyl-2-pyridyl)-1H-imidazol-4-yl]-3-quinolyl]cyclohex-3-en-1-yl]-5-oxo-pyrrolidine-2-carboxamide], in assay [1], the IC50 is 200 to 1260 nM. Further, the Ki in assay [2] was 0.0398 to 0.316 nM.

`Cc1cccc(-c2[nH]cnc2-c2ccc3ncc(-c4nc5c(s4)CCNC5)cc3c2)n1` [Compound 727, 2-(6-(5-(6-methylpyridin-2-yl)-1H-imidazol-4-yl)quinolin-3-yl)-4,5,6,7-tetrahydrothiazolo[4,5-c]pyridine]: in assay [1], the IC50 is under 20 nM. The Ki in assay [2] was under 0.0316 nM.
